Measurements taken from US20110212120A1, “Ykur polynucleotides and polypeptides” (VERNALIS (OXFORD) LIMITED, priority 2002, published 2011).

Target: T1, YkuR protein (Bacillus subtilis, UniProt O34916)
T1 construct: the full length ykuR gene product could be separated from internally digested gene product; made in house; host or cells: E. coli BL21 (pET24a)
Experiment: YkuR surrogate fluorometric assay (sodium hippurate substrate)
Assay type: biochemical, B. subtilis
Conditions: purified YkuR protein expressed in E. coli; phenanthroline added at increasing concentrations; FIG. 3
Procedure: A fluorometric assay for YkuR and its homologues has been developed using sodium hippurate (benzoyl glycine) as a substrate. Cleavage by YkuR releases free glycine which can be detected using F-phthaldialdehyde. The assay is performed in a total volume of 100 Fl per well in black 96 well microtitre plates. 40 Fl of YkuR protein 20 Fg/ml in 10 mM Hepes pH 6.8 containing 0.5 mM dithiothreitol and 10 mM potassium chloride) is added to the appropriate wells of a 96-well plate. Appropriate concentrations of test compounds dissolved in 20 Fl of 100% DMSO are added, followed by 40 Fl of hippuric acid (250 mM in 50 mM Hepes pH 6.8 containing 0.05% Brij 35). Control wells lack either enzyme or test compound. The reactions are incubated for 1 hour at 37 EC. Following incubation 100 Fl of OPA Reagent (20 mM F-phthaldialdehyde in 50 mM borate buffer pH 9.5 containing 0.1% $-mercaptoethanol) is added to each well. The fluorescence at 460 nm is measure with an SLT Fluostar fluorometer using 355 nm excitation.
Assay using purified YkuR protein expressed in E. coli as described above. Phenanthroline, a known inhibitor of metalloprotease enzyme activity, was added at increasing concentrations to inhibit metalloenzyme activity.

T1 sequence (O34916 whole entry): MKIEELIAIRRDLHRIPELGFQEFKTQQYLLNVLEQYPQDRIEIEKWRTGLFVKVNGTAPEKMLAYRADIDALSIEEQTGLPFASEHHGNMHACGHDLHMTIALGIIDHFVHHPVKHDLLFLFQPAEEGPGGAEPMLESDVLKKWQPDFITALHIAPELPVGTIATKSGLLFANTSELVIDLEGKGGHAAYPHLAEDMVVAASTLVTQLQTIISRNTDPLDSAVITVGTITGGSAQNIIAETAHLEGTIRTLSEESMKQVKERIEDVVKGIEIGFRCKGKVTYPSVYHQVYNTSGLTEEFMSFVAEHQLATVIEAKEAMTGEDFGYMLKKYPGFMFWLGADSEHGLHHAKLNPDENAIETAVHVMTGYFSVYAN

c1cnc2c(c1)ccc1cccnc12 [Phenanthroline]
IC50: 96 µM
